According to article PMC6691788, “Design and synthesis of phthalazine-based compounds as potent anticancer agents with potential antiangiogenic activity via VEGFR-2 inhibition” (Journal of Enzyme Inhibition and Medicinal Chemistry, 2019):

How the values were obtained:
[1] = test system: RPMI-8226; assay: NCI 60 cell panel SRB screen; format: cell-based; conditions: Homo sapiens
[2] = test system: SNB-19; assay: NCI 60 cell panel SRB screen; format: cell-based; conditions: Homo sapiens
[3] = test system: T-47D; assay: NCI 60 cell panel SRB screen; format: cell-based; conditions: Homo sapiens, T47D
[4] = test system: OVCAR-8; assay: NCI 60 cell panel SRB screen; format: cell-based; conditions: Homo sapiens
[5] = test system: A549/ATCC; assay: NCI 60 cell panel SRB screen; format: cell-based; conditions: Homo sapiens
[6] = test system: MCF7; assay: NCI 60 cell panel SRB screen; format: cell-based; conditions: Homo sapiens
[7] = test system: K-562; assay: NCI 60 cell panel SRB screen; format: cell-based; conditions: Homo sapiens, K562
[8] = test system: NCI-H23; assay: NCI 60 cell panel SRB screen; format: cell-based; conditions: Homo sapiens
[9] = test system: MDA-MB 231/ATCC; assay: NCI 60 cell panel SRB screen; format: cell-based; conditions: Homo sapiens
[10] = test system: HOP-62; assay: NCI 60 cell panel SRB screen; format: cell-based; conditions: Homo sapiens
[11] = test system: NCI-H522; assay: NCI 60 cell panel SRB screen; format: cell-based; conditions: Homo sapiens
[12] = test system: PC-3; assay: NCI 60 cell panel SRB screen; format: cell-based; conditions: Homo sapiens
[13] = test system: ACHN; assay: NCI 60 cell panel SRB screen; format: cell-based; conditions: Homo sapiens
[14] = test system: full NCI 60 cell panel; assay: NCI 60 cell panel SRB screen, whole panel; format: cell-based, human; conditions: Homo sapiens, 60 cell
Description: Aiming to evaluate the general antitumour activity of the synthesised phthalazines, the structures of the final compounds were submitted to National Cancer Institute “NCI” (www.dtp.nci.nih.gov), Bethesda, Maryland, USA. In vitro NCI anticancer screening involves two-stage process, the first stage started with the evaluation of the selected candidates against the full NCI 60 cell lines panel representing leukaemia, non-small cell lung cancer, melanoma, colon, CNS, breast, ovarian, renal and prostate cancers at a single dose of 10 µM. NCI selection is based on degree of structure variation and application of computer modelling techniques to prioritise compounds based on their ability to add diversity to the NCI small molecule compound collection.
Eight compounds (6b, 6e, 7b, 13a, 13c, 16a, 16d and 17a) were selected by NCI for further 5 log dose screening against full NCI 60 cell panel. All the 60 cell lines, representing nine tumour subpanels (leukaemia, non-small cell lung cancer, colon cancer, CNS cancer, prostate cancer, melanoma, ovarian cancer, renal cancer and breast cancer) which were incubated at five different concentrations (0.01, 0.1, 1, 10 and 100 µM) of each of the test compounds. The outcomes were used to create log concentration vs % growth inhibition curves, then three response parameters (GI50, TGI and LC50) were calculated for each cell line, (Tables S4 and S5 in Supplementary material).
The human tumor cell lines of the cancer-screening panel were grown in RPMI 1640 medium containing 5% fetal bovine serum and […] L-glutamine. For a typical screening experiment, cells are inoculated into 96 well microtiter plates in 100 ml at plating densities ranging from 5000 to 40,000 cells/well depending on the doubling time of individual cell lines. After cell inoculation, the microtiter plates are incubated at 37 °C, 5% CO2, 95% air and 100%
relative humidity for 24 h prior to addition of experimental drugs. After 24 h, two plates of each cell line are fixed in situ with TCA, to represent a measurement of the cell population for each cell line at the time of drug addition (Tz). Experimental drugs are dissolved in dimethyl sulfoxide at 400-fold the desired final maximum test concentration and stored frozen prior to use. At the time of drug addition, an aliquot of frozen concentrate is thawed and diluted to twice the desired final maximum test concentration with complete medium containing […] Gentamicin. Additional four, 10-fold or ½log serial dilutions are made to provide a total of five drug concentrations plus control. Aliquots of […] of these different drug dilutions are added to the appropriate microtiter wells already containing 100 ml of medium, resulting in the required final drug concentrations. Following drug addition, the plates are incubated for an additional 48 h at 37 °C, 5% CO2, 95% air, and 100% relative humidity. For adherent cells, the assay is terminated by the addition of cold TCA. Cells are fixed in situ by the gentle addition of […] of cold 50% (w/v) TCA (final concentration,10% TCA) and incubated for 60 min at 4 °C. The supernatant is discarded, and the plates are washed five times with tap water and air dried. Sulforhodamine B (SRB) solution (100 ml) at 0.4% (w/v) in 1% acetic acid is added to each well, and plates are incubated for 10 min at room temperature. After staining, unbound dye is removed by washing five times with 1% acetic acid and the plates are air dried. Bound stain is subsequently dissolved with 10 μM trizma base, and the absorbance is read on an automated plate reader at a wavelength of 515 nm. For suspension cells, the methodology is the same except that the assay is terminated by fixing settled cells at the bottom of the wells by gently adding […] of 80% TCA (final concentration, 16% TCA). […]

[15] = test system: HCC-2998; assay: NCI 60 cell panel SRB screen; format: cell-based; conditions: Homo sapiens
[16] = test system: SF-295; assay: NCI 60 cell panel SRB screen; format: cell-based; conditions: Homo sapiens
[17] = test system: NCI-H226; assay: NCI 60 cell panel SRB screen; format: cell-based; conditions: Homo sapiens
[18] = test system: NCI/ADR-RES; assay: NCI 60 cell panel SRB screen; format: cell-based; conditions: Homo sapiens
[19] = test system: UO-31; assay: NCI 60 cell panel SRB screen; format: cell-based; conditions: Homo sapiens
[20] = single dose 10 μM, read-out: percent cell growth promotion
[21] = 5 log dose, 48 h, read-out: LC50 (the source's name)

Work on `O=C(Nc1ccc(Cl)cc1)Nc1ccc(Nc2nncc3ccccc23)cc1` [Compound 6b, 1–(4-Chlorophenyl)-3–(4-(phthalazin-1-ylamino)phenyl)urea] yielded a GI50 ([1]; RPMI-8226, 5 log dose) of 2.5 µM, an IC (TGI) ([1]; RPMI-8226, 5 log dose) of 8.75 µM and a CC50 ([1]; RPMI-8226, 5 log dose, 48 h, read-out: LC50 (the source's name)) of over 100 µM. The activity at 10 µM ([1]; RPMI-8226, single dose 10 μM, read-out: percent cell growth promotion) was 8.62%, the GI50 ([2]; SNB-19, 5 log dose) was 3.67 µM and the IC (TGI) ([2]; SNB-19, 5 log dose) was 19 µM. It also gave a CC50 ([2]; SNB-19, 5 log dose, 48 h, read-out: LC50 (the source's name)) of over 100 µM, an activity at 10 µM ([2]; SNB-19, single dose 10 μM, read-out: percent cell growth promotion) of 33% and a GI50 [3] of 1.03 µM. The IC (TGI) ([3]; read-out: TGI) was 5.35 µM, the activity at 10 µM ([3]; read-out: percent cell growth promotion) was -6.32% and the CC50 ([3]; T-47D, 5 log dose, 48 h, read-out: LC50 (the source's name)) was 79.3 µM. For the same compound, the GI50 ([4]; OVCAR-8, 5 log dose) was 3.12 µM, the IC (TGI) ([4]; OVCAR-8, 5 log dose) was 12.4 µM and the CC50 ([4]; OVCAR-8, 5 log dose, 48 h, read-out: LC50 (the source's name)) was over 100 µM. The activity at 10 µM ([4]; OVCAR-8, single dose 10 μM, read-out: percent cell growth promotion) was 18.2%, the GI50 ([5]; 5 log dose) was 3.03 µM and the IC (TGI) ([5]; 5 log dose) was 19.3 µM. It also gave an LC50 (concentration killing 50% of cells) ([5]; 5 log dose, 48 h) of over 100 µM, an activity at 10 µM [5, 20] of 20.1% and a GI50 ([6]; MCF7) of 1.43 µM. The IC (TGI) ([6]; MCF7, read-out: TGI) was 8.32 µM, the activity at 10 µM ([6]; MCF7, read-out: percent cell growth promotion) was 5.46% and the CC50 ([6]; MCF7, 5 log dose, 48 h, read-out: LC50 (the source's name)) was 64.1 µM. It also gave a GI50 ([7]; K-562, 5 log dose) of 1.68 µM, an IC (TGI) ([7]; K-562, 5 log dose) of 26.4 µM and a CC50 ([7]; K-562, 5 log dose, 48 h, read-out: LC50 (the source's name)) of over 100 µM. It also gave an activity at 10 µM ([7]; K-562, single dose 10 μM, read-out: percent cell growth promotion) of 9.49%, a GI50 ([8]; NCI-H23, 5 log dose) of 3.07 µM and an IC (TGI) ([8]; NCI-H23, 5 log dose) of 14.4 µM. For the same compound, the CC50 ([8]; NCI-H23, 5 log dose, 48 h, read-out: LC50 (the source's name)) was 71.8 µM, the activity at 10 µM ([8]; NCI-H23, single dose 10 μM, read-out: percent cell growth promotion) was 12.5% and the GI50 ([9]; MDA-MB-231) was 3.4 µM. It also gave an IC (TGI) ([9]; MDA-MB-231, read-out: TGI) of 15.9 µM, an activity at 10 µM ([9]; MDA-MB-231, read-out: percent cell growth promotion) of 36.6% and a CC50 ([9]; MDA-MB-231, MDA-MDA 231/ATCC, 5 log dose, 48 h, read-out: LC50 (the source's name)) of 64.9 µM. It also gave a GI50 ([10]; HOP-62, 5 log dose) of 3 µM, an IC (TGI) ([10]; HOP-62, 5 log dose) of 14.9 µM and a CC50 ([10]; HOP-62, 5 log dose, 48 h, read-out: LC50 (the source's name)) of 74.9 µM. For the same compound, the activity at 10 µM ([10]; HOP-62, single dose 10 μM, read-out: percent cell growth promotion) was 20.6%, the GI50 ([11]; NCI-H522, 5 log dose) was 1.32 µM and the IC (TGI) ([11]; NCI-H522, 5 log dose) was 8.81 µM. For the same compound, the CC50 ([11]; NCI-H522, 5 log dose, 48 h, read-out: LC50 (the source's name)) was 43.2 µM, the activity at 10 µM ([11]; NCI-H522, single dose 10 μM, read-out: percent cell growth promotion) was 11.9% and the GI50 ([12]; PC-3, 5 log dose) was 2.32 µM. The IC (TGI) ([12]; PC-3, 5 log dose) was 11 µM, the CC50 ([12]; PC-3, 5 log dose, 48 h, read-out: LC50 (the source's name)) was 55.4 µM and the activity at 10 µM ([12]; PC-3, single dose 10 μM, read-out: percent cell growth promotion) was 1.46%. It also gave a GI50 ([13]; 5 log dose) of 1.12 µM, an IC (TGI) ([13]; 5 log dose) of 7.12 µM and a CC50 [13, 21] of over 100 µM. The activity at 10 µM [13, 20] was 22.4%, the activity at 10 µM ([14]; mean over the panel, single dose 10 μM, read-out: Mean percent cell growth promotion) was 25% and the inhibition at 10 µM ([14]; single dose 10 µM, read-out: cell growth inhibition against various cell lines) was over 90%. It also gave a GI50 ([15]; HCC-2998, 5 log dose) of 3.26 µM, an IC (TGI) ([15]; HCC-2998, 5 log dose) of 19.8 µM and an LC50 (50% lethal concentration) ([15]; HCC-2998, 5 log dose, 48 h) of over 100 µM. It also gave an activity at 10 µM ([15]; HCC-2998, single dose 10 μM, read-out: percent cell growth promotion) of 30.7%, a GI50 ([16]; SF-295, 5 log dose) of 2.84 µM and an IC (TGI) ([16]; SF-295, 5 log dose) of 11 µM. It also gave a CC50 ([16]; SF-295, 5 log dose, 48 h, read-out: LC50 (the source's name)) of 45.8 µM, an activity at 10 µM ([16]; SF-295, single dose 10 μM, read-out: percent cell growth promotion) of 17.8% and a GI50 ([17]; NCI-H226, 5 log dose) of 2.46 µM. The IC (TGI) ([17]; NCI-H226, 5 log dose) was 12.5 µM, the CC50 ([17]; NCI-H226, 5 log dose, 48 h, read-out: LC50 (the source's name)) was 43.2 µM and the activity at 10 µM ([17]; NCI-H226, single dose 10 μM, read-out: percent cell growth promotion) was 33.3%. For the same compound, the GI50 ([18]; 5 log dose) was 2.79 µM, the IC (TGI) ([18]; 5 log dose) was 26.3 µM and the CC50 [18, 21] was over 100 µM. It also gave an activity at 10 µM [18, 20] of 36.2%, a GI50 ([19]; UO-31, 5 log dose) of 1.9 µM and an IC (TGI) ([19]; UO-31, 5 log dose) of 15.8 µM. The CC50 ([19]; UO-31, 5 log dose, 48 h, read-out: LC50 (the source's name)) was over 100 µM and the activity at 10 µM ([19]; UO-31, single dose 10 μM, read-out: percent cell growth promotion) was 19%.
